One test deals with human cyclin E-CDK2 (Homo sapiens, UniProt P24941). Put plainly: CDK2 HTRF kinase assay (Ki measurement). In kind it is biochemical. Here is the method:
(§1) To determine inhibition of Cdk4, Cdk2 and Cdk1 activity, kinase assays were conducted using FlashPlate™ assays (NEN™-Life Science Products). FlashPlate assays were performed using recombinant human cyclin B-CDK1, human cyclin E-CDK2 or human cyclin D1-CDK4 complexes. GST-cyclinE (GST-cycE), CDK2, GST-cyclinB (GST-cycB), CDK1, GST-CDK4 and cyclin D1 (cycD1) cDNA clones in baculovirus vectors were provided by Dr. W. Harper at the Baylor College of Medicine, Houston, Tex.
(§2) Alternatively, inhibition activity may be measured using Ki. […] These were done in 96-well format and read in 384-well plate format. The assays were run at 3× their respective Kms for ATP.
(§3) Twenty microliters were added to the wells of a 96-well plate. […] Blank wells without CDK4 were included. The plates were incubated at 37° C. for 30 minutes with shaking. […] After 30 minutes at 37° C., 15 μl/well of 3 nM Lance-Eu-W1024 labeled anti-rabbit IgG and 60 nM Allophycocyanin conjugated anti-His6 (PerkinElmer Life Sciences) in 25 mM Hepes, pH 7.0, 0.5 mg/ml BSA were added. Following a one hour incubation at 37 deg C., 35 μl of each well, in duplicate, were transferred to 384-well black plates. The plates were read using either ViewLux or Victor V readers (PerkinElmer Life Sciences) using an excitation wavelength of 340 nm and dual emission wavelengths of 615 nm and 665 nm.
(§4) The CDK1 and CDK2 assays were similarly run except for small differences in reagent and protein concentrations:
The compound and enzyme buffers for both assays contained 10 mM MgCl2.

Another test deals with human cyclin D1-CDK4 (Homo sapiens, UniProt P11802). The test is described as follows: CDK4 HTRF kinase assay (Ki measurement). In kind it is biochemical. Conditions: ATP at 3x Km. The procedure:
To determine inhibition of Cdk4, Cdk2 and Cdk1 activity, kinase assays were conducted using FlashPlateTM assays (NENTM-Life Science Products). […] W. Harper at the Baylor College of Medicine, Houston, Tex. Proteins were co-expressed in High FiveTM insect cells and the complex was purified on glutathione Sepharose resin (Pharmacia, Piscataway, N.J.) as previously described (Harper, J. W. et al. Cell 1993, 75, 805-816). A 6×-Histidine tagged […]) was used as the substrate for the cycD1-CDK4, cycB-CDK1 and the cycE-CDK2 assays (the expression plasmid was provided by Dr. Veronica Sullivan, Department of Molecular Virology, Roche Research Centre, Welwyn Garden City, United Kingdom). The Rb protein is a natural substrate for phosphorylation by CDK4, CDK2 and CDK1 (see Herwig and Strauss Eur. J. Biochem. Vol. 246 (1997) pp. 581-601 and the references cited therein). Alternatively, inhibition activity may be measured using Ki. Using the protein constructs described above in Example 19A above, CDK1, CDK2, and CDK4 HTRF assays were set up. These were done in 96-well format and read in 384-well plate format. The assays were run at 3× their respective Kms for ATP. In the CDK4 assay, test compounds were diluted to 3× their final concentrations in 25 mM Hepes, pH 7.0, 6.25 mM MgCl2, 1.5 mM DTT, 135 μM ATP. The DMSO concentration was no greater than 4.76%. Twenty microliters were added to the wells of a 96-well plate. The kinase reaction was initiated by the addition of 40 μl/well of a solution containing 0.185 μM Rb and 2.25 μg/ml CDK4 in 25 mM Hepes, pH 7.0, 6.25 mM MgCl2, 0.003% Tween-20, 0.3 mg/ml BSA, 1.5 mM DTT. Blank wells without CDK4 were included. The plates were incubated at 37° C. for 30 minutes with shaking. The kinase reaction was terminated by the addition of 15 μl/well of 1.6 uM anti-phospho-Rb ([…]) antibody (Cell Signaling Inc.) in 25 mM Hepes, pH 7.0, 24 mM EDTA, 0.2 mg/ml BSA. After 30 minutes at 37° C., 15 μl/well of 3 nM Lance-Eu-W1024 labeled anti-rabbit IgG and 60 nM Allophycocyanin conjugated anti-His6 (PerkinElmer Life Sciences) in 25 mM Hepes, pH 7.0, 0.5 mg/ml BSA were added. Following a one hour incubation at 37 deg C., 35 μl of each well, in duplicate, were transferred to 384-well black plates. The plates were read using either ViewLux or Victor V readers (PerkinElmer Life Sciences) using an excitation wavelength of 340 nm and dual emission wavelengths of 615 nm and 665 nm. IC50 values (the concentration of test compounds reducing the assay control fluorescence read-out by 50%) were first calculated from net readings at 665 nm, normalized for europium readings at 615 nm. For ATP competitive inhibitors, the Ki values were calculated according to the following equation: […]

The subject of test [1] is HCT116 colorectal carcinoma cell line. The test is described as follows: Tetrazolium dye proliferation assay (MTT assay). The note with it: Homo sapiens, HCT-116, HCT116 cells. In kind it is cell-based. The procedure:
Proliferation was evaluated by the tetrazolium dye assay according to the procedure of Denizot and Lang (Denizot, F. and Lang, R. J Immunol Methods 1986, 89, 271-277). The cell line used was HCT116, a colorectal carcinoma cell line obtained from the American Type Cell Culture Collection (ATCC; Rockville, Md.). The cells were grown in McCoy's 5A medium supplemented with 10% FCS and L-glutamine.
Cells were plated at the appropriate seeding density to give logarithmic growth over the course of the assay in a 96-well tissue culture plate. Plates were incubated overnight at 37° C. in a humidified incubator with 5% CO2. The next day, test compounds were serially diluted to four times the final concentration in the appropriate medium containing 1.2% DMSO. One-fourth final volume of each dilution was added in duplicate to the plates containing cells. The same volume of 1.2% DMSO in medium was added to a row of “control wells” such that the final concentration of DMSO in each well was 0.3%. Wells to which no cells were added served as the “blank.” Wells to which no inhibitor was added served as “no inhibitor control.” The plates were) returned to the incubator, and at set time points (determined by their growth curves) plates were analyzed as described below.
3-(4,5-dimethylthiazole-2-yl)-2,5-diphenyl-2H-tetrazolium bromide (thiazolyl blue; MTT; Sigma) was added to each well to yield a final concentration of 1 mg/ml. Plates were returned to the incubator for 2.5-3 hours at 37° C. The MTT-containing medium was removed and the resulting formazan metabolite was solubilized in 100% ethanol with shaking for 15 minutes at room temperature. Absorbance readings were taken in a microtiter plate reader (Dynatech and Molecular Devices plate readers were used interchangeably) at a wavelength of 570 nm with a 650 nm reference. Percent inhibition (% INH) is calculated by subtracting the absorbance of the blank well from all wells, then subtracting the ratio of the average absorbance of each test duplicate (SAVE) by the average of the controls (CAVE) from 1.00. The final number is then multiplied by 100 (% INH=(1.00−SAVE/CAVE)×100). The concentration at which 50% inhibition of cell proliferation is obtained (the IC50) is determined from the linear regression of a plot of the logarithm of the concentration versus percent inhibition.

The target of a further test is human cyclin B-CDK1 (Homo sapiens, UniProt P06493). The test is described as follows: CDK1 HTRF kinase assay (Ki measurement). In kind it is biochemical. The note with it: ATP at 3x Km. Here is the method: as §1, §2
as §3, with “nm. […] For ATP competitive inhibitors, the Ki values were calculated according to the following equation: Ki=IC50/(1+S/Km) where S refers to the substrate concentration and Km refers to the Michaelis-Menten constant.” for “nm.”
as §4
The compound and enzyme buffers for both assays contained 10 mM MgCl2. […] CDK1 at a reagent concentration of 0.15 ng/ul and CDK2 at a reagent concentration of 0.06 ng/ul were used.

Setting [2] is: HTRF assay, ATP at 3x Km, read-out: Ki CDK2.

Consider seven compounds from patent US7705009B2, “4-aminopyrimidine-5-thione derivatives” (Hoffman-La Roche Inc., priority 2005, dated 2010).

Like-named read-outs stand apart in the source and are kept apart here.

human cyclin D1-CDK4, sequence (P11802 whole entry): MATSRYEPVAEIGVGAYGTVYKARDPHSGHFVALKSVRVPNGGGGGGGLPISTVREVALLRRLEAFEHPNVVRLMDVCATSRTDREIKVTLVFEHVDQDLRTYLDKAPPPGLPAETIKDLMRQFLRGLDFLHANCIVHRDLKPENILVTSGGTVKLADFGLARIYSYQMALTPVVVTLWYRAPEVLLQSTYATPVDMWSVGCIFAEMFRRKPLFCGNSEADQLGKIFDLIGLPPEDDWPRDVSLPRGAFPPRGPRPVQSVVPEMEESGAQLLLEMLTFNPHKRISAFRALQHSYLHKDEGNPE
human cyclin D1-CDK4, sequence (P24385 whole entry partner): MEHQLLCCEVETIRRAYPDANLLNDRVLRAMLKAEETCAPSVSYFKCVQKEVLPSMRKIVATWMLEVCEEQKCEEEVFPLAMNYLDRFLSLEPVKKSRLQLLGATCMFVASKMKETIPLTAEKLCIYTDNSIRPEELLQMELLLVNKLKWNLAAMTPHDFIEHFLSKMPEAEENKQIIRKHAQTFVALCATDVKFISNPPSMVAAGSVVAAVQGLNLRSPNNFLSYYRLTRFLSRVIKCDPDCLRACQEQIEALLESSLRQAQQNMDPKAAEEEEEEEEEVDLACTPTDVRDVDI
human cyclin B-CDK1, sequence (P06493 whole entry): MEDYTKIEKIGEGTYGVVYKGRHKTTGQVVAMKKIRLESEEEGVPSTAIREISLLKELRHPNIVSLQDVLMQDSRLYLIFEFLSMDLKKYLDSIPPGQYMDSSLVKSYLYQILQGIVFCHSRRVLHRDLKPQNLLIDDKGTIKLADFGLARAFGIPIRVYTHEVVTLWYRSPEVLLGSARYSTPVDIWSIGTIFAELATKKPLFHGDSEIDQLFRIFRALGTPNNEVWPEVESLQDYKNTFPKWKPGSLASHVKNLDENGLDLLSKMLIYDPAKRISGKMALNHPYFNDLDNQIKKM
human cyclin B-CDK1, sequence (P14635 whole entry partner): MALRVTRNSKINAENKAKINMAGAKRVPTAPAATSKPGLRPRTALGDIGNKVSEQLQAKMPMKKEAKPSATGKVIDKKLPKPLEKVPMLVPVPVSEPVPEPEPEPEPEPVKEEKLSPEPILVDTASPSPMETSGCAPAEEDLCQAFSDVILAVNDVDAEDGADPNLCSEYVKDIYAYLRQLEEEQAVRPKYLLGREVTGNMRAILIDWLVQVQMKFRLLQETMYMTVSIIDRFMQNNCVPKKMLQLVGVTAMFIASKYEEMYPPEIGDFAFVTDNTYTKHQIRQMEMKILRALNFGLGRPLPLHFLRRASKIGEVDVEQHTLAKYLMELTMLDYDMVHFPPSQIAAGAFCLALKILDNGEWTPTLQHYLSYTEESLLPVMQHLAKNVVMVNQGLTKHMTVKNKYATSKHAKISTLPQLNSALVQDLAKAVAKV

On to `COc1ccc(F)c(F)c1C(=S)c1cnc(N[C@H]2CC[C@H](N(C)S(C)(=O)=O)CC2)nc1N` [Example 3, N-{4-[4-Amino-5-(2,3-difluoro-6-methoxy-thiobenzoyl)-pyrimidin-2-ylamino]-cyclohexyl}-N-methylmethanesulfonamide], for which the Ki on human cyclin E-CDK2 (setting [2]) was 0.27 nM; at human cyclin D1-CDK4, 1.33 nM; on human cyclin B-CDK1, 0.42 nM. Moreover, the IC50 in test [1] was 13 nM.
For `COc1ccc(F)c(F)c1C(=S)c1cnc(NC2CCN(S(N)(=O)=O)CC2)nc1N` [Example 4, 4-[4-Amino-5-(2,3-difluoro-6-methoxy-thiobenzoyl)-pyrimidin-2-ylamino]-piperidine-1-sulfonic acid amide] the same measures were below 1 nM, below 1 nM, below 3 nM and 3 nM.
In the case of `COc1ccc(F)cc1C(=S)c1cnc(NC2CCN(S(C)(=O)=O)CC2)nc1N` [Example 5, [4-Amino-2-(1-methanesulfonyl-piperidin-4-ylamino)-pyrimidin-5-yl]-(5-fluoro-2-methoxy-phenyl)-methanethione], the results for the Ki on human cyclin E-CDK2, at human cyclin D1-CDK4 and on human cyclin B-CDK1 were 1.3 nM, 1.3 nM and below 10 nM, respectively. Besides, the midpoint of inhibition in test [1], the IC50, lay at 81 nM.
Take `CS(=O)(=O)N1CCC(Nc2ncc(C(=S)c3c(F)c(F)cc4ccoc34)c(N)n2)CC1` [Example 6, [4-Amino-2-(1-methanesulfonyl-piperidin-4-ylamino)-pyrimidin-5-yl]-(5,6-difluoro-benzofuran-7-yl)-methanethione]: the Ki on human cyclin E-CDK2 (setting [2]) turned out to be 0.1 nM; on human cyclin D1-CDK4, 0.26 nM; at human cyclin B-CDK1 it was 3 nM. Further, it took 13 nM to reach half-maximal inhibition in test [1] (IC50).
For `CS(=O)(=O)N1CCC(Nc2ncc(C(=S)c3c(Cl)ccc(F)c3F)c(N)n2)CC1` [Example 13, [4-Amino-2-(1-methanesulfonyl-piperidin-4-ylamino)-pyrimidin-5-yl]-(6-chloro-2,3-difluoro-phenyl)-methanethione] the same measures were 1 nM, 3 nM, 3 nM and 176 nM.
Regarding `COc1ccc(F)c(F)c1C(=S)c1cnc(Nc2ccc(S(N)(=O)=O)cc2)nc1N` [Example 14, 4-[4-Amino-5-(2,3-difluoro-6-methoxy-thiobenzoyl)-pyrimidin-2-ylamino]-benzenesulfonamide], the inhibitory constant (Ki) worked out at 1 nM at human cyclin E-CDK2 (setting [2]), 3 nM on human cyclin D1-CDK4 and 3 nM on human cyclin B-CDK1. The compound also yielded an IC50 in test [1] of 32 nM.
Consider `CS(=O)(=O)N1CCC(Nc2ncc(C(=S)c3c(F)cccc3F)c(N)n2)CC1` [Example 15, [4-Amino-2-(1-methanesulfonyl-piperidin-4-ylamino)-pyrimidin-5-yl]-(2,6-difluoro-phenyl)-methanethione], for which the Ki at human cyclin E-CDK2 is 1 nM; at human cyclin D1-CDK4, 1 nM; at human cyclin B-CDK1 it was 3 nM. Besides, half-maximal inhibition in test [1] (IC50) was put at 171 nM.
